The values that follow come from paper PMC11171525 (Cells, 2024).

For orientation: EC50 means the concentration at which the effect is half-maximal. One may read the Km as the substrate concentration at which the rate is half of its maximum.

One assay deals with PpCM2. Nature of the assay: CM activity assay, recombinant PpCM2 (disappearance of chorismate at 274 nm). It is filed as biochemical, Pinus pinaster. To be noted: for impact on activity (activation or inhibition), effector screening: threshold […] (Figure S2). The protocol: (§1) Similarly, the effect on CM activity of decreasing concentrations of the amino acids Phe, Tyr, and Trp was determined.
(§2) To study their catalytic properties, P. pinaster PpCM1 and PpCM2 were functionally expressed in E. coli, including N-terminal His-tags, lacking the predicted chloroplast signal peptides, and were subsequently purified with Ni^2+-affinity chromatography.

The next assay concerns PpCM1. Nature of the assay: CM activity assay, recombinant PpCM1 (disappearance of chorismate at 274 nm). To be noted: for impact on activity (activation or inhibition), effector screening: threshold […] (Figure S2). It is filed as biochemical, Pinus pinaster. The protocol: as §1, §2
Another assay deals with CMs from lycophytes. To be noted: substrate chorismate; ref [30]; cited from earlier work.
For another assay, the system named is CMs from mosses. Conditions: substrate chorismate; ref [30]; cited from earlier work.
[1] abbreviates: 2 mM amino acid, 1 mM chorismate.
[2] abbreviates: inhibition of CM activity by Phe, read-out: EC50 (Phe).
Where [3] appears, read: activation of CM activity by Trp, read-out: EC50 (Trp).
The mark [4] stands for this setting: substrate chorismate, 50 mM Tris pH 8, 30 °C.
[5] abbreviates: substrate chorismate, turnover rate.

Read-outs that look alike come from different tables or passages of the source.

In the case of `N[C@@H](Cc1ccccc1)C(=O)O` [Phe, phenylalanine], the “reduction in activity compared to controls” value in the assay with PpCM2 (setting [1]) is 3 fold; with PpCM1 (setting [1]) it was 9.6 fold. Moreover, the “impact on activity (activation or inhibition), effector screening” value in the assay on PpCM2 (2 mM amino acid) and in the assay with PpCM1 (2 mM amino acid) was greater than 1.5 fold throughout. Further, the retained activity in the assay with PpCM2 (in the presence of 2 mM Phe) is recorded as 30–35%. For the same compound, the EC50 in the assay with PpCM2 (setting [2]) was found to be 88 µM; with PpCM1 (setting [2]), 36 µM.

For the compound `N[C@@H](Cc1c[nH]c2ccccc12)C(=O)O` [Trp, tryptophan], the increase in activity in the assay with PpCM2 (setting [1]) worked out at 1.7 fold; with PpCM1 (setting [1]), 3.1 fold. In addition, the “impact on activity (activation or inhibition), effector screening” value in the assay on PpCM2 (2 mM amino acid) and with PpCM1 (2 mM amino acid) was greater than 1.5 fold throughout. The EC50 with PpCM2 (setting [3]) and in the assay with PpCM1 (setting [3]) was roughly 0.1 µM each time.

With `N[C@@H](Cc1ccc(O)cc1)C(=O)O` [Tyr, tyrosine], the entries for the “reduction in activity compared to controls” value in the assay on PpCM2 (setting [1]) and in the assay with PpCM1 (setting [1]) were 10.1 fold and 11.4 fold, respectively. The “impact on activity (activation or inhibition), effector screening” value with PpCM2 (2 mM amino acid) and in the assay with PpCM1 (2 mM amino acid) was greater than 1.5 fold each time.

In the case of `C=C(O[C@@H]1C=C(C(=O)O)C=C[C@H]1O)C(=O)O` [chorismate], the Kcat was 18.8 s⁻¹ in the assay on CMs from lycophytes, 19.5 to 20.7 s⁻¹ in the assay on CMs from mosses, 35 s⁻¹ in the assay with PpCM2 (setting [5]) and 29.4 s⁻¹ in the assay on PpCM1 (setting [5]). Moreover, the Michaelis constant (Km) in the assay on PpCM2 (setting [4]) worked out at 1700 µM; in the assay with PpCM1 (setting [4]), 1600 µM.
